Results on 16 molecules are retold here after ChEMBL document CHEMBL3045976, “Synthesis of biphenyl derivatives as ACE and -amylase inhibitors” (Med Chem Res, 2013).

The source made the active and inactive calls. The calls are words filed in the database; no cut-off is given here.

Experiment [1] addresses Angiotensin-converting enzyme (Homo sapiens) (UniProt P12821). Put plainly: Inhibition of ACE (unknown origin) using Hippuryl-His-Leu as substrate at 1 to 10 ug incubated for 10 min prior to substrate addition measured after 45 min by spectrophotometric analysis relative to control.
For experiment [2], the target named is Alpha amylase (Homo sapiens) (UniProt P0DUB6). As to the kind of experiment: Inhibition of alpha-amylase (unknown origin) using starch as substrate at 100 to 500 ug incubated for 10 min prior to substrate addition measured after 15 min by DNSA method relative to control.
In experiment [3] the target is Angiotensin-converting enzyme (Homo sapiens) (UniProt P12821). Put plainly: Inhibition of ACE (unknown origin) using Hippuryl-His-Leu as substrate at 10 ug incubated for 10 min prior to substrate addition measured after 45 min by spectrophotometric analysis relative to control.
Chain of Angiotensin-converting enzyme (Homo sapiens) (P12821 whole entry): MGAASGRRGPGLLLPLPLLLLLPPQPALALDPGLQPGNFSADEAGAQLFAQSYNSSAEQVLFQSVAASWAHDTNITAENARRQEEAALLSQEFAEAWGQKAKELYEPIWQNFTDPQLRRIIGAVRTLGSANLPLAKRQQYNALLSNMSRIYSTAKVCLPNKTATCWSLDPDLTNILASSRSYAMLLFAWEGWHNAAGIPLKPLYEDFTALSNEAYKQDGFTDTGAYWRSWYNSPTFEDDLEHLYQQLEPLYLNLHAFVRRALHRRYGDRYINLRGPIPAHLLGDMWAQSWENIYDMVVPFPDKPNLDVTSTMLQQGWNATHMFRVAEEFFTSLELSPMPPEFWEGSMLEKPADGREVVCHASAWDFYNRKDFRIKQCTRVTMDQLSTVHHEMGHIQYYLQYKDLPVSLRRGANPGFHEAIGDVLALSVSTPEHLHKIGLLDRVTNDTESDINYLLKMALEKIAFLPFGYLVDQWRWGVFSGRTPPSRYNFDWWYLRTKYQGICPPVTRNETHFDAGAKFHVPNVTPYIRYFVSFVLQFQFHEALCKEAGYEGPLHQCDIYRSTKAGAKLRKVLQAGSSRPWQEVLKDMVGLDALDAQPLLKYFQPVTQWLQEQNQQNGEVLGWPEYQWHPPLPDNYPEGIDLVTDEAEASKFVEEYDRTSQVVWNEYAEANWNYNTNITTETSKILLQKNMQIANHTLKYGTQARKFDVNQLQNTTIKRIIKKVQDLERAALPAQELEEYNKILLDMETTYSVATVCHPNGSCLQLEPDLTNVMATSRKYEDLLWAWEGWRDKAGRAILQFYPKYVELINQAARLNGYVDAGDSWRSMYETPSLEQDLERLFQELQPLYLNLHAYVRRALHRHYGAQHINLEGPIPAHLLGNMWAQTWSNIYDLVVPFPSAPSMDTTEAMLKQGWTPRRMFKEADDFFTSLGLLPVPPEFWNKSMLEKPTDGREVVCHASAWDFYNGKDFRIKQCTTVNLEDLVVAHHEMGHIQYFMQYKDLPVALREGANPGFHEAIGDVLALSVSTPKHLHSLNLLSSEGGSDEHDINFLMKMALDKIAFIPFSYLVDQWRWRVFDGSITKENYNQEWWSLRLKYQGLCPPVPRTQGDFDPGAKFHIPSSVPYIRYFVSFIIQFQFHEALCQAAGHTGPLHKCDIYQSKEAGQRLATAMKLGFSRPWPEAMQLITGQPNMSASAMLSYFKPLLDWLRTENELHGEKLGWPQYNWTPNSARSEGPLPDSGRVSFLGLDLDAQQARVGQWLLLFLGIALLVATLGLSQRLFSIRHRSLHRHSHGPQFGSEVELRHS

Chain of Alpha amylase (Homo sapiens) (P0DUB6 whole entry, looked up): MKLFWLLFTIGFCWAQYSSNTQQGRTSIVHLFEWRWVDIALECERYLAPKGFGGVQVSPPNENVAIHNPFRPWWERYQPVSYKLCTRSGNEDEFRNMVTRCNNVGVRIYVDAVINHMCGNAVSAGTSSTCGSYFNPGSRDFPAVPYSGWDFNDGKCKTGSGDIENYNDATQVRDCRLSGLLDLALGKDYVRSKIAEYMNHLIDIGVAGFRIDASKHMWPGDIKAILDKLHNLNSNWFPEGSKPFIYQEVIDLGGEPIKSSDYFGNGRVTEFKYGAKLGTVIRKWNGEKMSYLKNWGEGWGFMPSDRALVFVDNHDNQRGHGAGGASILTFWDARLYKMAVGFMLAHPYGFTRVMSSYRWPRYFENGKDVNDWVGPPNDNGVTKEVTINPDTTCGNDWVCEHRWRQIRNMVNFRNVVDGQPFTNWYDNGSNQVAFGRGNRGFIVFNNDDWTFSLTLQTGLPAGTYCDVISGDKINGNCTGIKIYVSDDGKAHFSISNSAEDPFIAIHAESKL

Consider `O=C1CSC(=O)N1Cc1ccc(-c2ccccc2-c2nnn[nH]2)cc1`, for which the inhibition result in experiment [1] is “inactive”. For `Cc1nnc(-c2ccccc2-c2ccc(CN3CCNCC3)cc2)o1`, the inhibition result in experiment [1] and in experiment [2] was “inactive” throughout. Take `O=C(O)C1CCN(Cc2ccc(-c3ccccc3-c3nnn[nH]3)cc2)CC1`: the inhibition entry in experiment [1] and in experiment [2] was “inactive” in each case. Turning to `c1ccc(-c2nnn[nH]2)c(-c2ccc(Cn3ccnc3)cc2)c1`, the inhibition in experiment [3] amounted to 80%.

As for `Cc1nnc(-c2ccccc2-c2ccc(CN3CCOCC3)cc2)o1`, the inhibition result in experiment [1] and in experiment [2] was “inactive” throughout. For the molecule `c1ccc(-c2nnn[nH]2)c(-c2ccc(Cn3cncn3)cc2)c1`, in experiment [3], the inhibition amounted to 80%. Turning to `CN1CCN(Cc2ccc(-c3ccccc3-c3nnn[nH]3)cc2)CC1`, the inhibition in experiment [3] amounted to 92%.

As to `OCCOCCN1CCN(Cc2ccc(-c3ccccc3-c3nnn[nH]3)cc2)CC1`, the inhibition result in experiment [1] is “inactive”. Regarding `Cc1nnc(-c2ccccc2-c2ccc(CN3CCN(CCOCCO)CC3)cc2)o1`, the inhibition entry in experiment [1] and in experiment [2] was “inactive” throughout. For the molecule `Cc1nnc(-c2ccccc2-c2ccc(CN3CCN(C)CC3)cc2)o1`, the inhibition result in experiment [1] and in experiment [2] was “inactive” throughout.

Regarding `c1ccc(-c2nnn[nH]2)c(-c2ccc(CN3CCNCC3)cc2)c1`, the inhibition in experiment [3] turned out to be 83%. As for `Cc1nnc(-c2ccccc2-c2ccc(Cn3cncn3)cc2)o1`, the inhibition result in experiment [1] and in experiment [2] was “inactive” each time. As for `Cc1nnc(-c2ccccc2-c2ccc(Cn3ccnc3)cc2)o1`, the inhibition entry in experiment [1] and in experiment [2] was “inactive” in each case. `c1ccc(-c2nnn[nH]2)c(-c2ccc(CN3CCOCC3)cc2)c1`: the inhibition result in experiment [1] and in experiment [2] was “inactive” throughout. Regarding `Cc1nnc(-c2ccccc2-c2ccc(CN3CCC(C(=O)O)CC3)cc2)o1`, the inhibition entry in experiment [1] and in experiment [2] was “inactive” in each case. `Cc1nnc(-c2ccccc2-c2ccc(CN3C(=O)CSC3=O)cc2)o1`: the inhibition entry in experiment [1] and in experiment [2] was “inactive” throughout.
